Source: publication PMC8188729 (Nature, 2020)
Where two headings read alike, the source gives them in different places.

How the values were obtained:
HIV-1BaL [1] = assay: p24 endpoint antiviral assay in primary human CD4+ T-lymphocytes; assay type: cell-based; conditions: Human immunodeficiency virus 1, CD4+ T, read-out: mean EC50
HIV-1BaL [2] = assay: p24 endpoint antiviral assay in macrophage cultures; assay type: cell-based; conditions: Human immunodeficiency virus 1, Macrophage, read-out: mean EC50
[3] = test system: single-cycle reporter HIV-1; assay: microbe, parasite or virus in culture; assay type: cell-based
Cytotoxicity assay [4] = assay type: cell-based; conditions: human, MT-4 cells
Cytotoxicity assay [5] = assay type: cell-based; conditions: human, Huh-7 cells
Cytotoxicity assay [6] = assay type: cell-based; conditions: human, Gal-HepG2 cells
Cytotoxicity assay [7] = assay type: cell-based; conditions: human, Gal-PC-3 cells
Cytotoxicity assay [8] = assay type: cell-based; conditions: human, primary human hepatocytes
[9] = test system: HIV-1 recombinant strains resistant to NRTIs, NNRTIs, INSTIs, PIs or MIs; assay type: cell-based
Gag polyprotein = Gag polyprotein (Human immunodeficiency virus type 1 group M subtype B, UniProt P12493); assay: biochemical; assay type: binding
CA pentamer = CA pentamer (Human immunodeficiency virus type 1 group M subtype B, UniProt P12493, A154C/M317A/N153C/W316A); assay: biochemical; assay type: binding
CA hexamer_M66I = CA hexamer_M66I (Human immunodeficiency virus type 1 group M subtype B, UniProt P12493, A146C/E177C/M198I/M317A/W316A); assay: Surface plasmon resonance binding assay; set-up: species or system HIV-1
HIV-1 CA mutants = assay type: cell-based; conditions: mutant/WT EC50 ratio
[10] = test system: primary human hepatocytes; assay: Metabolic stability of [3H]GS-6207 in primary human hepatocytes; assay type: in vitro ADME; conditions: [3H]GS-6207, primary human hepatocytes
[11] = Study GS-US-200-4072: safety in participants living with HIV; assay type: in vivo, human; conditions: for Any AE / Arthralgia / Constipation / Haemorrhoids / Headache / Injection site erythema / Injection site induration / Injection site nodule / Injection site pain / Nasopharyngitis / Nausea / Oropharyngeal pain / Rash / Serious AE: Atrial fibrillation / Syphilis / Upper respiratory tract infection / Vomiting: PLWH
HIV-1 capsid = assay: Study GS-US-200-4072: HIV-1 resistance analyses; conditions: in vivo
HIV-2 isolates = assay: 7-day RT endpoint antiviral assay in human PBMCs, HIV-2 isolates; conditions: Human immunodeficiency virus 2, PBMC, read-out: mean EC50
[12] = GS-6207 20 mg or Placebo (n = 8)
[13] = GS-6207 50 mg or Placebo (n = 8)

CC(C)(C#Cc1ccc(-c2ccc(Cl)c3c(NS(C)(=O)=O)nn(CC(F)(F)F)c23)c([C@H](Cc2cc(F)cc(F)c2)NC(=O)Cn2nc(C(F)(F)F)c3c2C(F)(F)[C@@H]2C[C@H]32)n1)S(C)(=O)=O [GS-6207]
EC50 (HIV-1BaL [1]): 0.032 nM
EC50 (HIV-1BaL [2]): 0.056 nM
EC50 ([3]; Human immunodeficiency virus 1): 0.025 nM
EC50 ([3]; Human immunodeficiency virus 1, HEK-293T): 0.439 nM
EC50 ([3]; Human immunodeficiency virus 1, MT2): 0.023 nM
CC50 (Cytotoxicity assay [4]): 24700 ± 18300 nM
CC50 (Cytotoxicity assay [5]): > 44400 nM
CC50 (Cytotoxicity assay [6]): > 44400 nM
CC50 (Cytotoxicity assay [7]): > 44400 nM
CC50 (Cytotoxicity assay [8]): > 50000 nM
Fold resistance ([9]; HIV-1 mutant 6TAMs (NRTI)): 0.2 ± 0.1 (3)
Fold resistance ([9]; HIV-1 mutant E92Q+N155H (INSTI)): 0.8 ± 0.4 (3)
Fold resistance ([9]; HIV-1 mutant E138K+Q148K (INSTI)): 0.6 ± 0.3 (3)
Fold resistance ([9]; HIV-1 mutant G48V+V82A+L90M (PI)): 0.5 ± 0.2 (3)
Fold resistance ([9]; HIV-1 mutant G48V+V82S (PI)): 0.4 ± 0.2 (3)
Fold resistance ([9]; HIV-1 mutant G140S+Q148R (INSTI)): 0.8 ± 0.3 (3)
Fold resistance ([9]; HIV-1 mutant I84V+L90M (PI)): 0.3 ± 0.1 (3)
Fold resistance ([9]; HIV-1 mutant K65R (NRTI)): 0.6 ± 0.2 (3)
Fold resistance ([9]; HIV-1 mutant K103N+Y181C (NNRTI)): 0.6 ± 0.2 (3)
Fold resistance ([9]; HIV-1 mutant L100I+K103N (NNRTI)): 0.5 ± 0.2 (3)
Fold resistance ([9]; HIV-1 mutant M46I+I50V (PI)): 0.7 ± 0.2 (3)
Fold resistance ([9]; HIV-1 mutant M184V (NRTI)): 0.3 ± 0.3 (3)
Fold resistance ([9]; HIV-1 mutant N155H+Q148R (INSTI)): 1.2 ± 0.7 (3)
Fold resistance ([9]; HIV-1 mutant V7A in SP1 (MI)): 0.8 ± 0.4 (8)
Fold resistance ([9]; HIV-1 mutant V230I in CA (MI)): 0.7 ± 0.2 (6)
Fold resistance ([9]; HIV-1 mutant Y188L (NNRTI)): 0.5 ± 0.1 (3)
Kd (Gag polyprotein): 1.1 nM
Kd (CA pentamer): 0.22 ± 0.16 nM
koff (CA pentamer; CA pentamer): 2.7 ± 0.4 x 10^−5 s^−1
kon (CA pentamer; CA pentamer): 2 ± 1 x 10^5 M^−1s^−1
Kd (CA hexamer_M66I): 60 nM
koff (CA hexamer_M66I; CA hexamer_M66I): 2.6 ± 0.3 x 10^−3 s^−1
kon (CA hexamer_M66I; CA hexamer_M66I): 6 ± 4 x 10^4 M^−1s^−1
Fold GS-6207 resistance (HIV-1 CA mutants; HIV-1 CA K70N): 24
Fold GS-6207 resistance (HIV-1 CA mutants; HIV-1 CA L56I): 239
Fold GS-6207 resistance (HIV-1 CA mutants; HIV-1 CA M66I): >3,226
Fold GS-6207 resistance (HIV-1 CA mutants; HIV-1 CA N74D): 22
Fold GS-6207 resistance (HIV-1 CA mutants; HIV-1 CA Q67H): 6
Fold GS-6207 resistance (HIV-1 CA mutants; HIV-1 CA WT): 1
hepatic extraction [10]: 0.8%
predicted rate of hepatic clearance [10]: 0.17 mL/min/kg
Any AE [11, 12]: 5 (63) n (%)
Arthralgia [11, 12]: 0 n (%)
Constipation [11, 12]: 0 n (%)
Haemorrhoids [11, 12]: 0 n (%)
Headache [11, 12]: 1 (13) n (%)
Injection site erythema [11, 12]: 1 (13) n (%)
Injection site induration [11, 12]: 0 n (%)
Injection site nodule [11, 12]: 0 n (%)
Injection site pain [11, 12]: 0 n (%)
Nasopharyngitis [11, 12]: 0 n (%)
Nausea [11, 12]: 2 (25) n (%)
Oropharyngeal pain [11, 12]: 1 (13) n (%)
Rash [11, 12]: 1 (13) n (%)
Serious AE: Atrial fibrillation [11, 12]: 0 n (%)
Syphilis [11, 12]: 0 n (%)
Upper respiratory tract infection [11, 12]: 0 n (%)
Vomiting [11, 12]: 2 (25) n (%)
Any AE [11, 13]: 6 (75) n (%)
Arthralgia [11, 13]: 0 n (%)
Constipation [11, 13]: 1 (13) n (%)
Haemorrhoids [11, 13]: 1 (13) n (%)
Headache [11, 13]: 0 n (%)
Injection site erythema [11, 13]: 1 (13) n (%)
Injection site induration [11, 13]: 1 (13) n (%)
Injection site nodule [11, 13]: 1 (13) n (%)
Injection site pain [11, 13]: 4 (50) n (%)
Nasopharyngitis [11, 13]: 0 n (%)
Nausea [11, 13]: 1 (13) n (%)
Oropharyngeal pain [11, 13]: 1 (13) n (%)
Rash [11, 13]: 1 (13) n (%)
Serious AE: Atrial fibrillation [11, 13]: 0 n (%)
Syphilis [11, 13]: 1 (13) n (%)
Upper respiratory tract infection [11, 13]: 0 n (%)
Vomiting [11, 13]: 1 (13) n (%)
safety and tolerability ([11]; single SC 20 to 450 mg, participants with untreated HIV-1 infection): generally safe and well tolerated
decrease in phenotypic susceptibility (HIV-1 capsid): 1.6 fold
EC50 (HIV-2 isolates): 0.885 nM
